Kd data for one molecule are collected here from PMC7032066 (Insect biochemistry and molecular biology, 2019).

Starred links: 1 amine or outer side, 2 acyl side, 3 side chain; linkers in the order of their positions; H or OH if unused. Non-standard residues stand in square brackets, D forms with d. Residues, ends and D or L forms follow the SMILES beside them. Mur = C[C@@H](O[C@H]1[C@H](O)[C@@H](CO)OC(O)[C@@H]1N[*:1])C(=O)[*:2]; d(isoGln) = NC(=O)[C@@H](CCC(=O)[*:2])N[*:1]

The test deals with T1, M. sexta PGRP1 (Manduca sexta, UniProt Q86RS6).
T1 sequence (Q86RS6 20-191): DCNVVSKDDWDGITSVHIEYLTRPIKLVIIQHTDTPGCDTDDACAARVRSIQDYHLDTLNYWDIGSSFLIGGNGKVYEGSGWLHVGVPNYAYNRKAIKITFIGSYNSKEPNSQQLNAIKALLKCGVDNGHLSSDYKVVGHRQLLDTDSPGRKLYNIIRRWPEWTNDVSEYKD
Kind of test: SPR. The class given is binding. The following applies: HBS-EP pH 7.4 (10 mM HEPES, 150 mM NaCl, 3 mM EDTA, 0.005% polysorbate 20), 25°C.

`CC(=O)N[C@H]1C(O)O[C@H](CO)[C@@H](O)[C@@H]1O[C@H](C)C(=O)N[C@@H](C)C(=O)N[C@H](CCC(=O)N[C@@H](CCCCN)C(=O)N[C@H](C)C(=O)N[C@H](C)C(N)=O)C(N)=O` (stereo partly shown) [Lys-MPP] (Ac-[Mur]A[d(isoGln)]K[dA][dA]-NH2) registered a dissociation constant Kd of 45.6 µM.
